The METLIN SMRT retention time set (Domingo-Almenara et al. 2019)

test: gradient 5% acetonitrile 3 min, to 50% in 2 min, to 85% in 15 min, held 3 min, 100 µL/min; details: column: Zorbax Extend-C18 2.1 x 50 mm; eluents: water / acetonitrile, 0.1% formic acid
Method in brief: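 The system's dead and dwell volumes were 40 μL and 900 μL, with a Zorbax Extend-C18 column (2.1 × 50 mm, 1.8 μm) run at 100 μL/min in water and acetonitrile containing 0.1% formic acid each. Pure standards were analyzed in mixtures of ~100 molecules by HPLC–quadrupole time-of-flight mass spectrometry in positive and negative ionization mode. Retention time was assigned from computationally picked, manually inspected adduct peaks.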

SMILES	RP-LC retention time
CC1CCN(Cc2nnc(-c3ccccc3)o2)CC1	601 s
CN(CC(=O)N1CCN(C2CCCCC2)CC1)S(=O)(=O)c1ccc2c(c1)CCCC(=O)N2	602 s
Cc1noc(COC2CCN(C(=O)c3ccccc3F)CC2)n1	818 s
Cc1c(C(=O)NCCN2CCOCC2)sc2ncn(CC(=O)N3CCCCC3C)c(=O)c12 (stereo unspecified)	598 s
N#Cc1cccc(-c2cn3c(n2)N(C(=O)CC2CCCC2)CCC3)c1	848 s
CC(=O)c1ccc(NC(=O)Cn2c(-c3cnccn3)nc(C)c(C)c2=O)cc1	680 s
C=CCn1nc2ccc(S(=O)(=O)N3CCCCC3)cn2c1=O	778 s
CCn1cnc(S(=O)(=O)N2CCC(C(=O)Nc3cc(C)ccc3C)CC2)c1	719 s
CCCCc1ccc(NC(=O)Cn2nc3cc(C)nc(-c4ccc(Cl)cc4)n3c2=O)cc1	1200 s
Cc1[nH]c(C)c(S(=O)(=O)N2CCC(C(=O)NC3CCC(C)CC3)CC2)c1C(=O)N1CCCCC1 (stereo unspecified)	778 s
CCN1CCN(C(=O)Cc2c(C)nc3nc(-c4ccccc4)nn3c2C)CC1	589 s
CC(C)NC(=O)C(=O)c1c(-c2ccccc2)[nH]c2ccccc12	776 s
Cc1ccc(N2C=C(C(=O)N3CCCC3)S(=O)(=O)c3ccc(F)cc32)cc1	799 s
CCOC(=O)c1[nH]c(C)c(CN(Cc2ccco2)C(=O)c2ccc(N(C)C)cc2)c1C	894 s
Cc1ccsc1CCNC(=O)C1CCN(S(=O)(=O)c2ccc3c(c2)sc(=O)n3C)CC1	872 s
Cc1ccsc1C(=O)NCC1Cn2cccc2C(=O)N1C (stereo unspecified)	656 s
CCCNC(=O)C1CCN(c2ccc(SCC(=O)NCc3cccc(C(F)(F)F)c3)nn2)CC1	672 s
CC1CCc2nn(CC(=O)NCCCN(Cc3ccccc3)C(C)C)cc2C1 (stereo unspecified)	592 s
Cc1cc(-c2nnc(C3CCC3)o2)c(C)n1CC(=O)Nc1ccccc1F	887 s
CCOC(=O)c1noc2nc(C)nc(N3CCN(c4ccc(F)cc4)CC3)c12	1070 s
CCNC(=O)c1cc(N(C)C)nc2ccccc12	567 s
CCn1cc(CCNC(=O)Nc2cccc(C)c2C)c2cccnc21	720 s
COCCCNC(=O)C1CCCN(c2cnc3nc(C)c(C)nc3c2)C1 (stereo unspecified)	619 s

SMILES	RP-LC retention time
CCC1CCCCN1C(=O)Cc1c(C)nn(-c2nc(-c3ccc(C)cc3)cs2)c1C (stereo unspecified)	1380 s
Cc1ccc2ncn(C3CCN(S(=O)(=O)c4ccc(Cl)cc4)CC3)c(=O)c2c1	970 s
COc1ccc(C2Cn3nnc(-c4nc(-c5ccc(OC(C)C)cc5)no4)c3CO2)cc1 (stereo unspecified)	1250 s
O=C(Cn1nc2c(N3CCN(c4ccccc4)CC3)nccn2c1=O)Nc1ccccc1Cl	928 s
Cc1ccc(NC(=O)Cn2nc3cc(C)nc(-c4ccccc4)n3c2=O)c(C)c1	832 s
CCN1C(=O)Cc2cc(C(=O)N3CCN(c4ccccn4)CC3)ccc21	780 s
O=C(NCc1ccc2c(c1)OCO2)C1CCCN(c2nnc3ccc(Cl)cn23)C1 (stereo unspecified)	735 s
Cc1nnc(-c2ccc3ccn(CC(=O)N4CCC5(CC4)OCCO5)c3c2)o1	673 s
CCCN1N=C(C(=O)N2CCOCC2)S(=O)(=O)c2cc(Cl)ccc21	813 s
O=C(Nc1ccc2c(c1)C(=O)Nc1ccccc1O2)c1ccc2nsnc2c1	773 s
CCC(C)NC(=O)c1cc2c(s1)N(CC1CC1)CCCC2 (stereo unspecified)	1090 s
CSc1cccc(NC(=O)CSc2ccc(N3CCCC(C(=O)NC4CC4)C3)nn2)c1 (stereo unspecified)	682 s
Cc1ccc(CC(=O)NC(C)C(=O)Nc2nc3ccccc3[nH]2)cc1 (stereo unspecified)	665 s
CSc1ccc(CNC(=O)c2cccc(-c3nc4cccnc4n3C)c2)cc1	759 s
O=C(NCc1ccc(F)cc1)N1CCCC1c1nc(-c2ccccc2)no1 (stereo unspecified)	914 s
CC(C)c1ccc(-c2cc3c4nn(CC(=O)NC5CCCC5)c(=O)n4ccn3n2)cc1	983 s
O=C(C1CCN(c2nc3ccc(-c4cccc(F)c4)nc3s2)CC1)N1CCCC1	981 s
CC(C)NC(=O)CCC(=O)N1CCc2c(c(C(=O)N3CCCCC3)nn2C)C1	617 s
CC(C)n1cnc2ccc(-c3noc(COc4ccc(F)cc4)n3)cc21	783 s
Cc1ccc(CNC(=O)Cn2cc(C(=O)N3CCCC3)c(=O)c3ccc(C)nc32)cc1	694 s
Cc1nc2ccccc2n1Cc1nnc2sc(-c3cccnc3)nn12	550 s
c1cc(-c2noc(-c3cccs3)n2)cc(-c2ccn[nH]2)c1	903 s
CC(=O)c1cccc(NC(=O)CN(C)c2nc3c(F)cccc3s2)c1	798 s

SMILES	RP-LC retention time
Cc1cc(C)n(-c2ccnc(N3CCC(C(=O)NCCN4CCCC4)CC3)n2)n1	587 s
COC(=O)c1ccc(CSc2nc3ccccc3[nH]2)cc1	648 s
COCc1noc([C@@H]2CC(F)(F)CN2C(=O)c2conc2C)n1	679 s
CCCN(C)CC1(O)CCC2(CCN(C(=O)c3ccsc3)CC2)CC1	590 s
O=C(NC(CO)C(O)c1ccc([N+](=O)[O-])cc1)C(Cl)Cl (stereo unspecified)	735 s
Cc1ccc(NC(=O)Cn2nc(C(=O)N3CCCC3)c3ccccc32)cc1	850 s
CCOC(=O)C1CCN(C(=O)c2sc(-c3cn(C(C)C)c4ncccc34)nc2C)CC1	961 s
Cc1c(F)cccc1NC(=O)N(C)CC1CCOCC1	742 s
CC(C)c1ccc(N2C(=O)CN(S(C)(=O)=O)CC2(C)C(=O)NCc2ccc(F)cc2)cc1 (stereo unspecified)	836 s
COCCn1cnc2c(-c3ccccc3)cn(CC(=O)NCC3CCCO3)c2c1=O (stereo unspecified)	678 s
Cc1ccc(NC(=O)N2CCCC2c2cc(C)no2)cc1 (stereo unspecified)	782 s
CN(C)C(=O)c1csc(S(=O)(=O)N2CCC(C(=O)NCc3ccccc3Cl)CC2)c1	784 s
Cn1c(CNC(=O)C2CCc3nc(N4CCCC4)ncc3C2)nc2ccccc21 (stereo unspecified)	529 s
Cc1ccc(OCc2ccc(-c3nc(C#N)c(NCCN(C)C)o3)o2)cc1	709 s
O=C(NC1CCCCC1)c1ccc2ccnc(N3CCN(c4ccc(F)cc4)CC3)c2c1	908 s
O=C(NC1(c2nc(-c3cccnc3)no2)CCCCC1)c1ccc[nH]c1=O	667 s
CCCc1nnc(-c2cccnc2N2CCN(C(=O)c3ccc4ncccc4c3)CC2)o1	660 s
CCCCN1CCN(C(=O)CN2CCN(Cc3ccccc3)C2=O)CC1	589 s
Cn1cc(CC(=O)NCc2nc(-c3ccccc3)no2)c2ccccc21	837 s
Cc1cc(Cl)ccc1NC(=O)CCc1c(C)nn(-c2cc(N(C)C)ncn2)c1C	862 s
O=C(O)c1ccccc1-c1ccccc1C(=O)Nc1nc2ccccc2s1	867 s
Cc1ccc(-c2nc(C(N)=O)c3n2CCCCC3)cc1	690 s
Cc1cc(OCC(=O)Nc2ccnn2Cc2ccco2)cc(C)c1Cl	953 s

SMILES	RP-LC retention time
CN1C(=O)C(CC(=O)N2CCCCC2)=C2CCCCC21 (stereo unspecified)	677 s
O=c1nccc(SCc2ccc(Cl)cc2Cl)[nH]1	842 s
COc1ccc(NC(=O)C2(C)Oc3cccnc3NC2=O)c(OC)c1 (stereo unspecified)	707 s
CNC(=O)N1CC(C)Oc2ccc(C)cc21 (stereo unspecified)	765 s
Cc1ccc(N2CC(c3nc(-c4cccc(-c5ccnn5C)c4)no3)CC2=O)cc1C (stereo unspecified)	1010 s
O=C(Cn1ccn2nc(-c3ccccc3)c(CO)c2c1=O)NCCC1=CCCCC1	857 s
CCOC(=O)C1=C[C@]2(CC)CCCN3CCc4c(n1c1ccccc41)[C@@H]32	777 s
CC(C)CCNC(=O)C1(CCO)CCN(c2ncccn2)C1 (stereo unspecified)	614 s
CCOc1ccccc1-c1noc(CN2C(=O)COc3ccc(C)cc32)n1	1030 s
Cc1ccc(OCc2nn3c(COc4ccc(F)cc4)nnc3s2)cc1C	1100 s
CCC(=O)NC(C)c1nc(-c2ccccc2OC)no1 (stereo unspecified)	665 s
CCc1ccc(S(=O)(=O)N2CCC(n3c(-c4ccoc4)nc4cccnc43)C2)cc1 (stereo unspecified)	871 s
CCn1cc(-c2nc(-c3ccc(C)cc3)no2)c(=O)c2cc(F)c(N3CCOCC3)cc21	961 s
CCOC(=O)c1[nH]c(C)c(CN(Cc2ccco2)C(=O)c2ccc3c(c2)OCO3)c1C	935 s
Cc1ccc(NC(=O)C2CCN(S(=O)(=O)c3cc(C(=O)N4CCCCCC4)cs3)CC2)nc1	754 s
CS(=O)(=O)N1CCC(C(=O)Nc2cccc(Br)c2)Oc2ccccc21 (stereo unspecified)	996 s
O=C1COc2ccccc2N1Cc1nc(-c2cccc(F)c2)no1	990 s
O=S(=O)(c1cc(-c2nnc(C3CCCC3)o2)co1)N1CCCCCC1	1050 s
CCn1cc(-c2nc(C(=O)Nc3ccc(F)cc3F)cs2)c2cccnc21	1220 s
O=C(CN1CC=C(c2cnn(-c3ccccc3)c2)CC1)Nc1ccccc1Cl	690 s
COCCCNC(=O)C1c2ccccc2C(=O)N1CCCc1ccccc1 (stereo unspecified)	761 s
CCc1nn2c(nnc3c(=O)n(CCc4c[nH]c5ccccc45)ccc32)c1-c1ccc(F)cc1	1040 s
